Measurements published in patent US20140121236A1, “Compositions and Methods for Treating Myotonic Dystrophy Type 1” (UNIVERSITY OF SOUTHERN CALIFORNIA, priority 2012, published 2014).

Assays:
DM1 splicing defects = conditions: literature reference 16 (Warf et al.); cited from earlier work
[1] = tested on: MBNL1 and MBNL2 RNA splicing in DM1 myoblasts; assay: Splicing assay (RT-PCR) for RNAs from DM1 myoblasts; type: cell-based, human; conditions: 50 μM, 17 hours, RT-PCR
Protocol: A. Total RNA was isolated from normal (SKMC) myoblasts, untreated DM1 myoblasts and DM1 myoblasts treated with 50 μM RCN-001 or 50 μM Pentamidine for 17 hours and subjected to RT-PCR analysis using the indicated primers sets for MBNL1 and MBNL2 RNAs. GAPDH RNA was amplified in parallel as an internal control. The results of one of three experiments are shown. B. The relative levels of exon inclusion was measured by densitometry and tabulated as mean % exon inclusion +/− standard deviation.
Treatment of DM1 myoblasts with RCN-001 is also sufficient to rescue abnormal RNA splicing. Two RNAs were selected that show abnormal splicing in DM1 myoblasts: MBNL1 and MBNL2. DM1 myoblast were treated with 50 μM RCN-001 for 17 hours after which RNA was isolated and splice variants were analyzed as previously described (20-22).
Splicing assays for RNAs isolated from human myoblasts. DM1 patient myoblasts was treated with 50 μM of RCN-001 or Pentamidine for 17 h as described by Warf et al, 2009. Total RNA was isolated using the RNAeasy mini kit (Qiagen Inc., USA) following manufacture's protocol. cDNA was synthesized using 5 μg of total RNA using First-Strand cDNA synthesis kit (GE Healthcare). PCR amplification was carried out using 150 ng of cDNA for 35 cycles for each target RNA. The primers used for PCR amplification are as follows—
The relative band intensities were measured using densitometry analyses and the percent of exon inclusion was calculated as [exon inclusion/(exon inclusion+exon exclusion)]×100.

DM1 myoblasts [2] = assay: Viability of DM1 myoblasts by counting surviving cells; type: cell-based, human; conditions: 4 days, surviving cells vs vehicle control
DM1 myoblasts [3] = assay: Toxicity by shape and size of the nuclei of DM1 myoblasts; type: cell-based, human; set-up: key: −: Nontoxic; +: 10% alterations in nuclei shape and size; ++: 20-30% alterations in nuclei shape and size; +++: 40-50% alterations in nuclei shape and size; ++++: 60% alterations in nuclei shape and size; +++++: very sick, almost no surviving cells; conditions: 4 days
[4] = tested on: CUG-RNA foci in DM1 myoblasts; assay: FISH analysis of nuclear CUG-RNA foci in DM1 myoblasts; type: cell-based, human; conditions: 4 days, FISH
Protocol: DM1 myoblasts were then treated with 10 μM of either RCN-001 or the vehicle (DMSO) for 4 days and then examined by FISH using a Cy3 (CAG)10 probe.
Normal myoblasts were purchased from Lonza, Inc. DM1 myoblasts were a gift from Dr. Charles Thornton. Normal and DM1 myoblasts were maintained in SkGM Medium (Lonza, Inc.) containing 10% Fetal Bovine Serum and 1% Penicillin-Streptomycin, 5% CO2 at 37° C. Human Embryonic Kidney 293 Cells (293HEK) were maintained in Dulbecco's Modification of Eagle's Medium (DMEM) from Cellgro supplemented with 10% Fetal Bovine Serum and 1% Penicillin-Streptomycin, 5% CO2 at 37° C.
CUG-RNA foci were detected by performing FISH on untreated DM1 myoblasts and DM1 myoblasts following treatment. For FISH analysis, DM1 myoblasts were plated on a 24-well clear bottom polystyrene plate with circular glass coverslips followed by treatment. Prior to FISH analysis, cells were fixed using 4% paraformaldehyde in 1×PBS for 20 min at room temperature. FISH analysis was performed using a Cy3 conjugated (CAG)10 oligonucleotide probe (Integrated DNA Technologies, Inc.) as described by Taneja et al, 1995 and Dansithong et al, 2005. CUG-RNA foci were observed as a red signal using fluorescence microscopy. Immunofluorescence was performed as described by Dansithong et al, 2008. Endogenous SHARP was detected using SHARP polyclonal antibodies from Bethyl at a dilution of 1:1000. The secondary antibodies conjugated with FITC (Invitrogen) were used at a 1:2000 dilution. Chloride channel 1 (Clcn1 a.k.a. CIC-1) was detected using CIC-1 polyclonal antibodies from Santa Cruz. The secondary antibodies conjugated with Alexa Flour 488 (Invitrogen) were used at a 1:2000 dilution. FISH analysis in mouse muscle section was carried out as described in Mancodi et al, 2000 (9).

Q: With `N=C(N)c1ccc(OCCCCCOc2ccc(C(=N)N)cc2)cc1` [pentamidine, reference compound] as the molecule, how does the “rescue of DM1 splicing defects shown by others” value (DM1 splicing defects) read?
A: partially rescue DM1 splicing defects

Q: And the “rescue of abnormal splicing of MBNL1 and MBNL2” value [1]?
A: did not perform as well RCN-001

Q: Which “Toxicity: Viable” value (DM1 myoblasts [2]; Table 3, 10 μM) does the source give for `CCN(CC)c1ccc2cc(-c3nnc(-c4cc5ccccc5cc4O)o3)c(=O)oc2c1` [RCN-009, 7-(diethylamino)-3-(5-(3-hydroxynaphthalen-2-yl)-1,3,4-oxadiazol-2-yl)-2H-chromen-2-one] here?
A: ++ (30-40% cell survival)

Q: What about the “Toxicity: Toxic” value (DM1 myoblasts [3]; Table 3, 10 μM) of the same molecule?
A: +++ (40-50% alterations in nuclei shape and size)

Q: And the “# of Foci (percentage) 0-1: Percentage of cells with no or 1 nuclear foci” value ([4]; Table 3, 10 μM)?
A: 11 percentage

Q: And the “# of Foci (percentage) >2: Percentage of cells with 2 or greater nuclear foci” value ([4]; Table 3, 10 μM)?
A: 89 percentage

Q: With `CCCCCCc1cc2cc(-c3cn4ccccc4n3)c(=O)oc2cc1O` [RCN-011, 6-hexyl-7-hydroxy-3-(imidazo[1,2-a]pyridine-2-yl)-2H-chromen-2-one] as the molecule, how does the “Toxicity: Viable” value (DM1 myoblasts [2]; Table 4, 10 μM) read?
A: +++++ (90-100% cell survival)

Q: And the “Toxicity: Toxic” value (DM1 myoblasts [3]; Table 4, 10 μM)?
A: −

Q: And the “# of Foci (percentage) 0-1: Percentage of cells with no or 1 nuclear foci” value ([4]; Table 4, 10 μM)?
A: 17 percentage

Q: And the “# of Foci (percentage) >2: Percentage of cells with 2 or greater nuclear foci” value ([4]; Table 4, 10 μM)?
A: 83 percentage

Q: What does the source list for `O=c1oc2ccccc2cc1-c1nnc(-c2cccc(Br)c2)o1` [RCN-008, 3-(5-(3-bromophenyl)-1,3,4-oxadiazol-2-yl)-2H-chromen-2-one]?
A: Toxicity: Viable (DM1 myoblasts [2]; Table 3, 10 μM): +++ (50-60% cell survival); Toxicity: Toxic (DM1 myoblasts [3]; Table 3, 10 μM): +++ (40-50% alterations in nuclei shape and size); # of Foci (percentage) 0-1: Percentage of cells with no or 1 nuclear foci ([4]; Table 3, 10 μM): 27 percentage; # of Foci (percentage) >2: Percentage of cells with 2 or greater nuclear foci ([4]; Table 3, 10 μM): 23 percentage

Q: What does the source list for `CCN(CC)c1ccc2cc(-c3nnc(-c4ccc(Cl)cc4)o3)c(=O)oc2c1` [RCN-007, 3-(5-(4-chlorophenyl)-1,3,4-oxadiazol-2-yl)-7-(diethylamino)-2H-chromen-2-one]?
A: Toxicity: Viable (DM1 myoblasts [2]; Table 1, 10 μM): +++ (50-60% cell survival); Toxicity: Toxic (DM1 myoblasts [3]; Table 1, 10 μM): +++ (40-50% alterations in nuclei shape and size); # of Foci (percentage) 0-1: Percentage of cells with no or 1 nuclear foci ([4]; Table 1, 10 μM): 17 percentage; # of Foci (percentage) >2: Percentage of cells with 2 or greater nuclear foci ([4]; Table 1, 10 μM): 83 percentage

Q: Which results are given for `CCCCCCc1cc2cc(-c3nnc(-c4cccc(F)c4)o3)c(=O)oc2cc1O` [RCN-004, 3-(5-(3-fluorophenyl)-1,3,4-oxadiazol-2-yl)-6-hexyl-7-hydroxy-2H-chromen-2-one]?
A: Toxicity: Viable (DM1 myoblasts [2]; Table 1, 10 μM): ++ (30-40% cell survival); Toxicity: Toxic (DM1 myoblasts [3]; Table 1, 10 μM): +++ (40-50% alterations in nuclei shape and size); # of Foci (percentage) 0-1: Percentage of cells with no or 1 nuclear foci ([4]; Table 1, 10 μM): 29 percentage; # of Foci (percentage) >2: Percentage of cells with 2 or greater nuclear foci ([4]; Table 1, 10 μM): 71 percentage

Q: With `CCCCCCc1cc2cc(C(=O)Nc3cccc(Cl)c3Cl)c(=N)oc2cc1O` [RCN-016, N-(2,3-dichlorophenyl)-6-hexyl-7-hydroxy-2-imino-2H-chromene-3-carboxamide] as the molecule, how does the “Toxicity: Viable” value (DM1 myoblasts [2]; Table 2, 10 μM) read?
A: +++ (50-60% cell survival)

Q: What about the “Toxicity: Toxic” value (DM1 myoblasts [3]; Table 2, 10 μM) of the same molecule?
A: ++ (20-30% alterations in nuclei shape and size)

Q: What about the “# of Foci (percentage) 0-1: Percentage of cells with no or 1 nuclear foci” value ([4]; Table 2, 10 μM) of the same molecule?
A: 12 percentage

Q: And the “# of Foci (percentage) >2: Percentage of cells with 2 or greater nuclear foci” value ([4]; Table 2, 10 μM)?
A: 88 percentage

Q: With `CCCCCCc1cc2cc(-c3csc(-c4nc(-c5cc6cc(CCCCCC)c(O)cc6oc5=O)cs4)n3)c(=O)oc2cc1O` [RCN-012] as the molecule, how does the “Toxicity: Viable” value (DM1 myoblasts [2]; Table 4, 10 μM) read?
A: +++++ (90-100% cell survival)

Q: What about the “Toxicity: Toxic” value (DM1 myoblasts [3]; Table 4, 10 μM) of the same molecule?
A: −

Q: What about the “# of Foci (percentage) 0-1: Percentage of cells with no or 1 nuclear foci” value ([4]; Table 4, 10 μM) of the same molecule?
A: 14 percentage

Q: And the “# of Foci (percentage) >2: Percentage of cells with 2 or greater nuclear foci” value ([4]; Table 4, 10 μM)?
A: 86 percentage
